Measured values: article PMC5775429, “LY2087101 and dFBr share transmembrane binding sites in the (α4)3(β2)2 Nicotinic Acetylcholine Receptor” (Scientific Reports, 2018)

Columns and labels:
[1] = target: T1, (α4)2(β2)3 nAChR (Homo sapiens, UniProt P17787+P43681); assay: Two-electrode voltage-clamp of ACh-induced currents in Xenopus oocytes; assay type: cell-based
T1 construct: expressed in transfected cells; host or cells: Xenopus laevis oocytes injected with cRNA
Method: (§1) To begin to characterize LY2087101 interaction with the heteropentameric α4β2 nAChRs, we examined the selectivity of LY2087101 for the two α4β2 nAChR isoforms; high-agonist sensitivity (α4)2(β2)3 and low-agonist sensitivity (α4)3(β2)2 nAChRs. Xenopus oocytes were injected with α4 and β2 subunits RNAs at ratios 8:1 and 1:8 to favor expression of (α4)3(β2)2 and (α4)2(β2)3 nAChRs, respectively.
(§2) Ovarian lobules were surgically harvested from oocytes-positive female Xenopus laevis (NASCO, Fort Atkinson, WI) according to an animal use protocol approved by the Texas A&M Health Sciences Center Institutional Animals Care and Use Committee. The Texas A&M Health Sciences Center Research Facility is registered as an animal research facility with the United States Department of Agriculture and is fully accredited by the American Association for Accreditation of Laboratory Animal Care (AAALAC). For oocytes defolliculation, ovarian lobes were treated with 3 mg/ml collagenase type 2 (Worthington Biomedical, Lakewood, NJ) in Ca + 2-free buffer (85 mM NaCl, 2.5 mM KCl, 1 mM MgCl2, 5 mM HEPES, pH 7.6). Collagenase treatment was allowed to proceed for 3 hours at room temperature with gentle shaking then oocytes were washed several times with buffer to remove collagenase then with ND96-gentamicine buffer. Healthy Stage V and VI oocytes were visually selected and maintained at 18 °C in modified ND96-gentamicine buffer (96 mM NaCl, 2 mM KCl, 1.8 mM CaCl2, 1 mM MgCl2, 5 mM HEPES, 50 µg/ml gentamicin, pH 7.6). Oocytes were injected with 50–100 ng of the desired nAChR subunits cRNA mix at ratios of 8α:1β or 1α:8β to express nAChRs with subunit stoichiometries of 3α:2β (low agonist sensitivity) or 2α:3β (high agonist sensitivity), respectively.
(§3) Oocytes were continuously perfused with recording buffer (100 mM NaCl, 2 mM KCl, 1 mM CaCl2, 0.8 mM MgCl2, 1 mM EGTA, 10 mM Hepes, pH 7.5) except during periods of drug applications.

[2] = target: T2, (α4)3(β2)2 nAChR (Homo sapiens, UniProt P17787+P43681); assay: as above; assay type: cell-based
T2 construct: expressed in transfected cells; host or cells: Xenopus laevis oocytes injected with cRNA
Method: as §1, §2, §3

[3] = ACh alone (control), normalized to 1 mM ACh
[4] = in the presence of 1 µM LY2087101

T1 sequence (P43681 29-627 limits assumed): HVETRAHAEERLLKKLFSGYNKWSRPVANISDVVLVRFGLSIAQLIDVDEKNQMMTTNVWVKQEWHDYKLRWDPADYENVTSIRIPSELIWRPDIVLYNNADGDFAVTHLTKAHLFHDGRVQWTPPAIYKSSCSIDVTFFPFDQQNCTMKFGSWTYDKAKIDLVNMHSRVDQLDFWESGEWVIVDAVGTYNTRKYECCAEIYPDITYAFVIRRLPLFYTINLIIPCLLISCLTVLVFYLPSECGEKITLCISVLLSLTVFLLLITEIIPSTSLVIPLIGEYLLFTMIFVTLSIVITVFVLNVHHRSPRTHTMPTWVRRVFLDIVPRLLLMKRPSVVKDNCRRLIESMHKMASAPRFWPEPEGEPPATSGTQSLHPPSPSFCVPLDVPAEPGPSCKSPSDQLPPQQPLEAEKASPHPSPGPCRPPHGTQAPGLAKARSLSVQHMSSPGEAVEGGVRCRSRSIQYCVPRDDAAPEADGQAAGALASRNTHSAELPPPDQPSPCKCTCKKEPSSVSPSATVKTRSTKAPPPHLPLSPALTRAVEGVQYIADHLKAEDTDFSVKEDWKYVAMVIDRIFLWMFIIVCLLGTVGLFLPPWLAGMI
T1 sequence (P17787 26-502): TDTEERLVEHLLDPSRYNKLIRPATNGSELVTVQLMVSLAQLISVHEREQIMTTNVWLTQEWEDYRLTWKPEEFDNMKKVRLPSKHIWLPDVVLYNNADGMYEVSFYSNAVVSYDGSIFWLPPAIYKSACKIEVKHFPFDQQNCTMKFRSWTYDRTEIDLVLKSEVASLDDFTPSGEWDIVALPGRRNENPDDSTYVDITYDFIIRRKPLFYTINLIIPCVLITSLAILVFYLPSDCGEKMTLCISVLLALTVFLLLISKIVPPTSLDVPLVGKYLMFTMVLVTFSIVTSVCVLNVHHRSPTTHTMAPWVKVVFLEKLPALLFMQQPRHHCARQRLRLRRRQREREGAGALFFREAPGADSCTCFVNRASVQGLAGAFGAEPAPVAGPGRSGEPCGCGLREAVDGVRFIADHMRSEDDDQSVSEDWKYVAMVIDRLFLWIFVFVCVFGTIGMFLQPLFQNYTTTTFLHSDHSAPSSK
T2 sequence (P43681 29-627 limits assumed): as the sequence (P43681 29-627 limits assumed) above
T2 sequence (P17787 26-502): as the sequence (P17787 26-502) above

In the case of `CC(=O)OCC[N+](C)(C)C` [ACh, Acetylcholine chloride], the “ACh h (Hill coefficient)” value ([1]; ACh alone (control)) is reported as 1.2 ± 0.03, the “ACh Imax” value [1, 3] is reported as 100 ± 1% and the “ACh h (Hill coefficient)” value [1, 4] is reported as 1.0 ± 0.04. The “ACh h (Hill coefficient)” value ([2]; ACh alone (control)) was 0.66 ± 0.06, the “ACh Imax” value [2, 3] was 117 ± 6% and the “ACh h (Hill coefficient)” value [2, 4] was 0.7 ± 0.1.
